Tested on: LAN-6;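 note: growth inhibition of LAN-6 cells, determined with a cell viability assay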
Assay: cells
Type: functional, cell-based, Homo sapiens
Conditions: Homo sapiens, LAN-6
Description: SANGER: Inhibition of human LAN-6 cell growth in a cell viability assay.

Row | SMILES | IC50 [µM]
1 | COc1cc2c(Nc3ccc(NC(=O)c4ccccc4)cc3)ncnc2cc1OCCCN1CCOCC1 | > 4

Tested on: SNB-75;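 note: cell viability assay measuring growth inhibition of human SNB-75 cells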
Assay: cells
Type: functional, cell-based, Homo sapiens
Conditions: Homo sapiens, SNB-75
Description: SANGER: Inhibition of human SNB75 cell growth in a cell viability assay.

Row | SMILES | IC50 [µM]
2 | COc1cc2c(Nc3ccc(NC(=O)c4ccccc4)cc3)ncnc2cc1OCCCN1CCOCC1 | > 4

Tested on: ML-2;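 note: growth inhibition of ML-2 cells, measured with a cell viability readout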
Assay: cells
Type: functional, cell-based, Homo sapiens
Conditions: Homo sapiens, ML-2
Description: SANGER: Inhibition of human ML-2 cell growth in a cell viability assay.

Row | SMILES | IC50 [µM]
3 | COc1cc2c(Nc3ccc(NC(=O)c4ccccc4)cc3)ncnc2cc1OCCCN1CCOCC1 | > 4

Tested on: MHH-NB-11;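 note: growth inhibition of human MHH-NB-11 cells, read out by a cell viability assay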
Assay: cells
Type: functional, cell-based, Homo sapiens
Conditions: Homo sapiens, MHH-NB-11
Description: SANGER: Inhibition of human MHH-NB-11 cell growth in a cell viability assay.

Row | SMILES | IC50 [µM]
4 | COc1cc2c(Nc3ccc(NC(=O)c4ccccc4)cc3)ncnc2cc1OCCCN1CCOCC1 | > 4

Tested on: LB1047-RCC;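 note: inhibition of cell growth, determined with a cell viability assay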
Assay: cells
Type: functional, cell-based, Homo sapiens
Conditions: Homo sapiens, LB1047-RCC
Description: SANGER: Inhibition of human LB1047-RCC cell growth in a cell viability assay.

Row | SMILES | IC50 [µM]
5 | COc1cc2c(Nc3ccc(NC(=O)c4ccccc4)cc3)ncnc2cc1OCCCN1CCOCC1 | > 4

Tested on: SK-UT-1;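 note: growth inhibition of SK-UT-1 cells, measured by a cell viability assay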
Assay: cells
Type: functional, cell-based, Homo sapiens
Conditions: Homo sapiens, SK-UT-1
Description: SANGER: Inhibition of human SK-UT-1 cell growth in a cell viability assay.

Row | SMILES | IC50 [µM]
6 | COc1cc2c(Nc3ccc(NC(=O)c4ccccc4)cc3)ncnc2cc1OCCCN1CCOCC1 | 1.82

Tested on: NB69;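 note: growth inhibition of NB69 cells, determined by a cell viability assay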
Assay: cells
Type: functional, cell-based, Homo sapiens
Conditions: Homo sapiens, NB69
Description: SANGER: Inhibition of human NB69 cell growth in a cell viability assay.

Row | SMILES | IC50 [µM]
7 | COc1cc2c(Nc3ccc(NC(=O)c4ccccc4)cc3)ncnc2cc1OCCCN1CCOCC1 | 3.23

Tested on: VA-ES-BJ;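 note: growth inhibition of the VA-ES-BJ cell line, read out by a cell viability assay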
Assay: cells
Type: functional, cell-based, Homo sapiens
Conditions: Homo sapiens, VA-ES-BJ
Description: SANGER: Inhibition of human VA-ES-BJ cell growth in a cell viability assay.

Row | SMILES | IC50 [µM]
8 | COc1cc2c(Nc3ccc(NC(=O)c4ccccc4)cc3)ncnc2cc1OCCCN1CCOCC1 | 2.79

Tested on: RPMI-8866
Assay: cells
Type: functional, cell-based, Homo sapiens
Conditions: Homo sapiens, RPMI-8866
Description: SANGER: Inhibition of human RPMI-8866 cell growth in a cell viability assay.

Row | SMILES | IC50 [µM]
9 | COc1cc2c(Nc3ccc(NC(=O)c4ccccc4)cc3)ncnc2cc1OCCCN1CCOCC1 | > 4

Tested on: ES1;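 note: growth inhibition of ES1 cells, read out with a cell viability assay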
Assay: cells
Type: functional, cell-based, Homo sapiens
Conditions: Homo sapiens, ES1
Description: SANGER: Inhibition of human ES1 cell growth in a cell viability assay.

Row | SMILES | IC50 [µM]
10 | COc1cc2c(Nc3ccc(NC(=O)c4ccccc4)cc3)ncnc2cc1OCCCN1CCOCC1 | 1.77

Tested on: NKM-1;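 note: growth inhibition of NKM-1 cells, read out with a cell viability assay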
Assay: cells
Type: functional, cell-based, Homo sapiens
Conditions: Homo sapiens, NKM-1
Description: SANGER: Inhibition of human NKM-1 cell growth in a cell viability assay.

Row | SMILES | IC50 [µM]
11 | COc1cc2c(Nc3ccc(NC(=O)c4ccccc4)cc3)ncnc2cc1OCCCN1CCOCC1 | 1.17

Tested on: SW872;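 note: growth inhibition of SW872 cells, read out by a viability assay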
Assay: cells
Type: functional, cell-based, Homo sapiens
Conditions: Homo sapiens, SW872
Description: SANGER: Inhibition of human SW872 cell growth in a cell viability assay.

Row | SMILES | IC50 [µM]
12 | COc1cc2c(Nc3ccc(NC(=O)c4ccccc4)cc3)ncnc2cc1OCCCN1CCOCC1 | > 4

Tested on: SNU1;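 note: growth inhibition of human NCI-SNU-1 cells, measured with a cell viability assay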
Assay: cells
Type: functional, cell-based, Homo sapiens
Conditions: Homo sapiens, SNU1
Description: SANGER: Inhibition of human NCI-SNU-1 cell growth in a cell viability assay.

Row | SMILES | IC50 [µM]
13 | COc1cc2c(Nc3ccc(NC(=O)c4ccccc4)cc3)ncnc2cc1OCCCN1CCOCC1 | 3.11

Tested on: COLO-800;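 note: growth inhibition of COLO-800 cells, read out with a cell viability assay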
Assay: cells
Type: functional, cell-based, Homo sapiens
Conditions: Homo sapiens, COLO-800
Description: SANGER: Inhibition of human COLO-800 cell growth in a cell viability assay.

Row | SMILES | IC50 [µM]
14 | COc1cc2c(Nc3ccc(NC(=O)c4ccccc4)cc3)ncnc2cc1OCCCN1CCOCC1 | 1.7

Tested on: LXF-289 cell line
Assay: cells
Type: functional, cell-based, Homo sapiens
Conditions: Homo sapiens, LXF-289
Description: SANGER: Inhibition of human LXF-289 cell growth in a cell viability assay.

Row | SMILES | IC50 [µM]
15 | COc1cc2c(Nc3ccc(NC(=O)c4ccccc4)cc3)ncnc2cc1OCCCN1CCOCC1 | 2.54

Tested on: CTV-1;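 note: growth inhibition of the cell line, read out with a cell viability assay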
Assay: cells
Type: functional, cell-based, Homo sapiens
Conditions: Homo sapiens, CTV-1
Description: SANGER: Inhibition of human CTV-1 cell growth in a cell viability assay.

Row | SMILES | IC50 [µM]
16 | COc1cc2c(Nc3ccc(NC(=O)c4ccccc4)cc3)ncnc2cc1OCCCN1CCOCC1 | 2.07

Tested on: A253 cell line;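 note: growth inhibition of A253 cells, read out with a cell viability assay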
Assay: cells
Type: functional, cell-based, Homo sapiens
Conditions: Homo sapiens, A253
Description: SANGER: Inhibition of human A253 cell growth in a cell viability assay.

Row | SMILES | IC50 [µM]
17 | COc1cc2c(Nc3ccc(NC(=O)c4ccccc4)cc3)ncnc2cc1OCCCN1CCOCC1 | > 4

Tested on: TGBC24TKB;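 note: growth inhibition of human TGBC24TKB cells, read out with a cell viability assay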
Assay: cells
Type: functional, cell-based, Homo sapiens
Conditions: Homo sapiens, TGBC24TKB
Description: SANGER: Inhibition of human TGBC24TKB cell growth in a cell viability assay.

Row | SMILES | IC50 [µM]
18 | COc1cc2c(Nc3ccc(NC(=O)c4ccccc4)cc3)ncnc2cc1OCCCN1CCOCC1 | > 4

Tested on: 697
Assay: cells
Type: functional, cell-based, Homo sapiens
Conditions: Homo sapiens
Description: SANGER: Inhibition of human 697 cell growth in a cell viability assay.

Row | SMILES | IC50 [µM]
19 | COc1cc2c(Nc3ccc(NC(=O)c4ccccc4)cc3)ncnc2cc1OCCCN1CCOCC1 | 0.739

Tested on: ES7;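 note: growth inhibition of cultured human ES7 cells, read out as cell viability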
Assay: cells
Type: functional, cell-based, Homo sapiens
Conditions: Homo sapiens, ES7
Description: SANGER: Inhibition of human ES7 cell growth in a cell viability assay.

Row | SMILES | IC50 [µM]
20 | COc1cc2c(Nc3ccc(NC(=O)c4ccccc4)cc3)ncnc2cc1OCCCN1CCOCC1 | > 4

Tested on: NCI-H1648;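 note: cell viability assay measuring inhibition of NCI-H1648 cell growth, from the Sanger screening data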
Assay: cells
Type: functional, cell-based, Homo sapiens
Conditions: Homo sapiens, NCI-H1648
Description: SANGER: Inhibition of human NCI-H1648 cell growth in a cell viability assay.

Row | SMILES | IC50 [µM]
21 | COc1cc2c(Nc3ccc(NC(=O)c4ccccc4)cc3)ncnc2cc1OCCCN1CCOCC1 | > 4

Tested on: TE-12;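 note: growth inhibition of TE-12 cells, read out by a cell viability assay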
Assay: cells
Type: functional, cell-based, Homo sapiens
Conditions: Homo sapiens, TE-12
Description: SANGER: Inhibition of human TE-12 cell growth in a cell viability assay.

Row | SMILES | IC50 [µM]
22 | COc1cc2c(Nc3ccc(NC(=O)c4ccccc4)cc3)ncnc2cc1OCCCN1CCOCC1 | > 4

Tested on: no-11;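 note: growth inhibition of human NO-11 cells, read out with a cell viability assay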
Assay: cells
Type: functional, cell-based, Homo sapiens
Conditions: Homo sapiens
Description: SANGER: Inhibition of human no-11 cell growth in a cell viability assay.

Row | SMILES | IC50 [µM]
23 | COc1cc2c(Nc3ccc(NC(=O)c4ccccc4)cc3)ncnc2cc1OCCCN1CCOCC1 | > 4

Tested on: MHH-PREB-1;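 note: cell viability assay measuring inhibition of proliferation of human MHH-PREB-1 cells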
Assay: cells
Type: functional, cell-based, Homo sapiens
Conditions: Homo sapiens, MHH-PREB-1
Description: SANGER: Inhibition of human MHH-PREB-1 cell growth in a cell viability assay.

Row | SMILES | IC50 [µM]
24 | COc1cc2c(Nc3ccc(NC(=O)c4ccccc4)cc3)ncnc2cc1OCCCN1CCOCC1 | > 4

Tested on: LS-123
Assay: cells
Type: functional, cell-based, Homo sapiens
Conditions: Homo sapiens, LS-123
Description: SANGER: Inhibition of human LS-123 cell growth in a cell viability assay.

Row | SMILES | IC50 [µM]
25 | COc1cc2c(Nc3ccc(NC(=O)c4ccccc4)cc3)ncnc2cc1OCCCN1CCOCC1 | > 4

Tested on: EOL1;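 note: growth inhibition of EoL-1 cells, read out by a cell viability assay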
Assay: cells
Type: functional, cell-based, Homo sapiens
Conditions: Homo sapiens, EOL1
Description: SANGER: Inhibition of human EoL-1-cell cell growth in a cell viability assay.

Row | SMILES | IC50 [µM]
26 | COc1cc2c(Nc3ccc(NC(=O)c4ccccc4)cc3)ncnc2cc1OCCCN1CCOCC1 | 0.187

Tested on: U-266
Assay: cells
Type: functional, cell-based, Homo sapiens
Conditions: Homo sapiens, U-266
Description: SANGER: Inhibition of human U-266 cell growth in a cell viability assay.

Row | SMILES | IC50 [µM]
27 | COc1cc2c(Nc3ccc(NC(=O)c4ccccc4)cc3)ncnc2cc1OCCCN1CCOCC1 | 2.84

Tested on: EW-18;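 note: growth inhibition of EW-18 cells, read out by a cell viability assay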
Assay: cells
Type: functional, cell-based, Homo sapiens
Conditions: Homo sapiens, EW-18
Description: SANGER: Inhibition of human EW-18 cell growth in a cell viability assay.

Row | SMILES | IC50 [µM]
28 | COc1cc2c(Nc3ccc(NC(=O)c4ccccc4)cc3)ncnc2cc1OCCCN1CCOCC1 | > 4

Tested on: TE-8;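 note: growth inhibition of TE-8 cells, measured with a cell viability readout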
Assay: cells
Type: functional, cell-based, Homo sapiens
Conditions: Homo sapiens, TE-8
Description: SANGER: Inhibition of human TE-8 cell growth in a cell viability assay.

Row | SMILES | IC50 [µM]
29 | COc1cc2c(Nc3ccc(NC(=O)c4ccccc4)cc3)ncnc2cc1OCCCN1CCOCC1 | 2.49

Tested on: BB49-HNC;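 note: cell viability assay read-out, reported as inhibition of BB49-HNC cell growth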
Assay: cells
Type: functional, cell-based, Homo sapiens
Conditions: Homo sapiens, BB49-HNC
Description: SANGER: Inhibition of human BB49-HNC cell growth in a cell viability assay.

Row | SMILES | IC50 [µM]
30 | COc1cc2c(Nc3ccc(NC(=O)c4ccccc4)cc3)ncnc2cc1OCCCN1CCOCC1 | > 4

Tested on: CCRF-CEM;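 note: inhibition of CCRF-CEM cell growth, measured by a cell viability assay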
Assay: cells
Type: functional, cell-based, Homo sapiens
Conditions: Homo sapiens, CCRF-CEM
Description: SANGER: Inhibition of human CCRF-CEM cell growth in a cell viability assay.

Row | SMILES | IC50 [µM]
31 | COc1cc2c(Nc3ccc(NC(=O)c4ccccc4)cc3)ncnc2cc1OCCCN1CCOCC1 | 1.87

Tested on: HDLM-2;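 note: cell viability assay measuring suppression of HDLM-2 proliferation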
Assay: cells
Type: functional, cell-based, Homo sapiens
Conditions: Homo sapiens, HDLM-2
Description: SANGER: Inhibition of human HDLM-2 cell growth in a cell viability assay.

Row | SMILES | IC50 [µM]
32 | COc1cc2c(Nc3ccc(NC(=O)c4ccccc4)cc3)ncnc2cc1OCCCN1CCOCC1 | > 4

Tested on: DSH1;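 note: growth inhibition of human DSH1 cells, measured with a cell viability readout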
Assay: cells
Type: functional, cell-based, Homo sapiens
Conditions: Homo sapiens, DSH1
Description: SANGER: Inhibition of human DSH1 cell growth in a cell viability assay.

Row | SMILES | IC50 [µM]
33 | COc1cc2c(Nc3ccc(NC(=O)c4ccccc4)cc3)ncnc2cc1OCCCN1CCOCC1 | > 4

Tested on: COLO-684
Assay: cells
Type: functional, cell-based, Homo sapiens
Conditions: Homo sapiens, COLO-684
Description: SANGER: Inhibition of human COLO-684 cell growth in a cell viability assay.

Row | SMILES | IC50 [µM]
34 | COc1cc2c(Nc3ccc(NC(=O)c4ccccc4)cc3)ncnc2cc1OCCCN1CCOCC1 | > 4

Tested on: SW982;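 note: growth inhibition of SW982 cells, read out with a cell viability assay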
Assay: cells
Type: functional, cell-based, Homo sapiens
Conditions: Homo sapiens, SW982
Description: SANGER: Inhibition of human SW982 cell growth in a cell viability assay.

Row | SMILES | IC50 [µM]
35 | COc1cc2c(Nc3ccc(NC(=O)c4ccccc4)cc3)ncnc2cc1OCCCN1CCOCC1 | > 4

Tested on: GT3TKB;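 note: growth inhibition of the cell line, read out with a cell viability assay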
Assay: cells
Type: functional, cell-based, Homo sapiens
Conditions: Homo sapiens, GT3TKB
Description: SANGER: Inhibition of human GT3TKB cell growth in a cell viability assay.

Row | SMILES | IC50 [µM]
36 | COc1cc2c(Nc3ccc(NC(=O)c4ccccc4)cc3)ncnc2cc1OCCCN1CCOCC1 | > 4

Tested on: ONS-76;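 note: growth inhibition of human ONS-76 cells, read out with a cell viability assay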
Assay: cells
Type: functional, cell-based, Homo sapiens
Conditions: Homo sapiens, ONS-76
Description: SANGER: Inhibition of human ONS-76 cell growth in a cell viability assay.

Row | SMILES | IC50 [µM]
37 | COc1cc2c(Nc3ccc(NC(=O)c4ccccc4)cc3)ncnc2cc1OCCCN1CCOCC1 | > 4

Tested on: TGBC1TKB;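 note: growth inhibition of TGBC1TKB cells, read out by a cell viability assay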
Assay: cells
Type: functional, cell-based, Homo sapiens
Conditions: Homo sapiens, TGBC1TKB
Description: SANGER: Inhibition of human TGBC1TKB cell growth in a cell viability assay.

Row | SMILES | IC50 [µM]
38 | COc1cc2c(Nc3ccc(NC(=O)c4ccccc4)cc3)ncnc2cc1OCCCN1CCOCC1 | > 4

Tested on: KLE;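 note: growth inhibition of human KLE cells, read out with a cell viability assay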
Assay: cells
Type: functional, cell-based, Homo sapiens
Conditions: Homo sapiens, KLE
Description: SANGER: Inhibition of human KLE cell growth in a cell viability assay.

Row | SMILES | IC50 [µM]
39 | COc1cc2c(Nc3ccc(NC(=O)c4ccccc4)cc3)ncnc2cc1OCCCN1CCOCC1 | > 4

Tested on: SF-126;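 note: growth inhibition of human SF126 cells, read out with a cell viability assay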
Assay: cells
Type: functional, cell-based, Homo sapiens
Conditions: Homo sapiens, SF-126
Description: SANGER: Inhibition of human SF126 cell growth in a cell viability assay.

Row | SMILES | IC50 [µM]
40 | COc1cc2c(Nc3ccc(NC(=O)c4ccccc4)cc3)ncnc2cc1OCCCN1CCOCC1 | > 4

Tested on: COLO-668
Assay: cells
Type: functional, cell-based, Homo sapiens
Conditions: Homo sapiens, COLO-668
Description: SANGER: Inhibition of human COLO-668 cell growth in a cell viability assay.

Row | SMILES | IC50 [µM]
41 | COc1cc2c(Nc3ccc(NC(=O)c4ccccc4)cc3)ncnc2cc1OCCCN1CCOCC1 | > 4

Tested on: COLO-829
Assay: cells
Type: functional, cell-based, Homo sapiens
Conditions: Homo sapiens, COLO-829
Description: SANGER: Inhibition of human COLO-829 cell growth in a cell viability assay.

Row | SMILES | IC50 [µM]
42 | COc1cc2c(Nc3ccc(NC(=O)c4ccccc4)cc3)ncnc2cc1OCCCN1CCOCC1 | 2.64

Tested on: GB-1;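 note: growth of GB-1 cells judged by a viability assay, IC50 marks the concentration inhibiting growth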
Assay: cells
Type: functional, cell-based, Homo sapiens
Conditions: Homo sapiens, GB-1
Description: SANGER: Inhibition of human GB-1 cell growth in a cell viability assay.

Row | SMILES | IC50 [µM]
43 | COc1cc2c(Nc3ccc(NC(=O)c4ccccc4)cc3)ncnc2cc1OCCCN1CCOCC1 | > 4

Tested on: KNS-81-FD;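 note: growth inhibition of KNS-81-FD cells, read out with a cell viability assay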
Assay: cells
Type: functional, cell-based, Homo sapiens
Conditions: Homo sapiens, KNS-81-FD
Description: SANGER: Inhibition of human KNS-81-FD cell growth in a cell viability assay.

Row | SMILES | IC50 [µM]
44 | COc1cc2c(Nc3ccc(NC(=O)c4ccccc4)cc3)ncnc2cc1OCCCN1CCOCC1 | > 4

Tested on: SCC-15;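 note: growth inhibition of SCC-15 cells, read out with a cell viability assay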
Assay: cells
Type: functional, cell-based, Homo sapiens
Conditions: Homo sapiens, SCC-15
Description: SANGER: Inhibition of human SCC-15 cell growth in a cell viability assay.

Row | SMILES | IC50 [µM]
45 | COc1cc2c(Nc3ccc(NC(=O)c4ccccc4)cc3)ncnc2cc1OCCCN1CCOCC1 | 3.73
